Test results from patent US8772500B2, “TRPV3 modulators” (AbbVie Inc., priority 2011, dated 2014).

Columns and labels:
[1] = In vitro rat microsomal stability assay; type: in vitro ADME, rat (Sprague-Dawley); settings: Sprague-Dawley, rat, 0.5 h, 0.5 μM, pH 7.4
Description: (§1) Test compounds were evaluated for metabolic stability in an in vitro rat microsomal stability assay using rat (Sprague-Dawley, from BD Biosciences) liver microsomes and/or an in vitro human microsomal stability assay using human (Xenotech) liver microsomes. […] Incubations were carried out at 37° C. with a final incubation volume of 135 μL. […] A 1.5 μL aliquot of reduced nicotine adenine disphosphonucleotide (NADPH) (Chem-Impex Int'L Inc., Lot 12532024) was also added to the time-zero plates.

[2] = In vitro human microsomal stability assay; type: in vitro ADME; settings: human, 0.5 h, 0.5 μM, pH 7.4
Description: as §1

Row | RAT MICROSOMAL STABILITY (% REMAINING AFTER 30 MINUTES) [1] | HUMAN MICROSOMAL STABILITY (% REMAINING AFTER 30 MINUTES) [2] | Compound
1 | <0.01% | <0.01% | OC(C1CCCc2cccnc21)C1(c2ccc(F)c(F)c2)CCC1 (stereo not drawn) [Example 170, (syn)-[1-(3,4-difluorophenyl)cyclobutyl][5,6,7,8-tetrahydroquinolin-8-yl]-methanol]
2 | <0.01% | 2.7% | OC(C1CCc2cccnc21)C1(c2ccc(F)c(F)c2)CCC1 (stereo not drawn) [Example 171, (anti)-[1-(3,4-difluorophenyl)cyclobutyl][6,7-dihydro-5H-cyclopenta[b]-pyridin-7-yl]methanol]
3 | <0.01% | 2.4% | OC(C1CCc2cccnc21)C1(c2ccc(F)c(F)c2)CCC1 (stereo not drawn) [Example 172, (syn)-[1-(3,4-difluorophenyl)cyclobutyl][6,7-dihydro-5H-cyclopenta[b]-pyridin-7-yl]methanol]
4 | <0.01% | 45% | OC(C1CCc2cccnc21)C1(c2ccc(C(F)(F)F)cc2)CCC1 (stereo not drawn) [Example 173, (anti)-6,7-dihydro-5H-cyclopenta[b]pyridin-7-yl{1-[4-(trifluoromethyl)-phenyl]cyclobutyl}methanol]
5 | <0.01% | 26% | OC(C1CCc2cccnc21)C1(c2ccc(C(F)(F)F)cc2)CCC1 (stereo not drawn) [Example 174, (syn)-6,7-dihydro-5H-cyclopenta[b]pyridin-7-yl{1-[4-(trifluoromethyl)-phenyl]cyclobutyl}methanol]
6 | <0.01% | 29% | OC(C1CCc2cccnc21)C1(c2ccc(OC(F)(F)F)cc2)CCC1 (stereo not drawn) [Example 175, (anti)-6,7-dihydro-5H-cyclopenta[b]pyridin-7-yl{1-[4-(trifluoromethoxy)-phenyl]cyclobutyl}methanol]
7 | <0.01% | 20% | OC(C1CCc2cccnc21)C1(c2ccc(OC(F)(F)F)cc2)CCC1 (stereo not drawn) [Example 176, (syn)-6,7-dihydro-5H-cyclopenta[b]pyridin-7-yl{1-[4-(trifluoromethoxy)-phenyl]cyclobutyl}methanol]
8 | <0.01% | 0.39% | OC(C1CCc2cccnc21)C1(c2cccc(C(F)(F)F)c2)CCC1 (stereo not drawn) [Example 185, (anti)-6,7-dihydro-5H-cyclopenta[b]pyridin-7-yl{1-[3-(trifluoromethyl)-phenyl]cyclobutyl}methanol]
9 | <0.01% | <0.01% | OC(C1CCCc2cccnc21)C1(c2cccc(OC(F)(F)F)c2)CCC1 (stereo not drawn) [Example 187, (anti)-5,6,7,8-tetrahydroquinolin-8-yl{1-[3-(trifluoromethoxy)phenyl]-cyclobutyl}methanol]
10 | <0.01% | 0.16% | OC(C1CCCc2cccnc21)C1(c2cccc(OC(F)(F)F)c2)CCC1 (stereo not drawn) [Example 188, (syn)-5,6,7,8-tetrahydroquinolin-8-yl{1-[3-(trifluoromethoxy)phenyl]-cyclobutyl}methanol]
11 | <0.01% | 0.65% | OC(C1CCc2cccnc21)C1(c2cccc(OC(F)(F)F)c2)CCC1 (stereo not drawn) [Example 189, (anti)-6,7-dihydro-5H-cyclopenta[b]pyridin-7-yl{1-[3-(trifluoromethoxy)-phenyl]cyclobutyl}methanol]
12 | <0.01% | 3.7% | OC(C1CCc2cccnc21)C1(c2cccc(OC(F)(F)F)c2)CCC1 (stereo not drawn) [Example 190, (syn)-6,7-dihydro-5H-cyclopenta[b]pyridin-7-yl{1-[3-(trifluoromethoxy)-phenyl]cyclobutyl}methanol]
13 | <0.01% | <0.01% | OC(C1CCCc2cccnc21)C1(c2ccccc2OC(F)(F)F)CCC1 (stereo not drawn) [Example 191, (anti)-5,6,7,8-tetrahydroquinolin-8-yl{1-[2-(trifluoromethoxy)phenyl]-cyclobutyl}methanol]
14 | <0.01% | <0.01% | OC(C1CCCc2cccnc21)C1(c2ccccc2OC(F)(F)F)CCC1 (stereo not drawn) [Example 192, (syn)-5,6,7,8-tetrahydroquinolin-8-yl{1-[2-(trifluoromethoxy)phenyl]-cyclobutyl}methanol]
15 | <0.01% | 0.02% | OC(C1CCc2cccnc21)C1(c2ccccc2OC(F)(F)F)CCC1 (stereo not drawn) [Example 193, (anti)-6,7-dihydro-5H-cyclopenta[b]pyridin-7-yl{1-[2-(trifluoromethoxy)-phenyl]cyclobutyl}methanol]
16 | <0.01% | 0.08% | OC(C1CCc2cccnc21)C1(c2ccccc2OC(F)(F)F)CCC1 (stereo not drawn) [Example 194, (syn)-6,7-dihydro-5H-cyclopenta[b]pyridin-7-yl{1-[2-(trifluoromethoxy)-phenyl]cyclobutyl}methanol]

Row | RAT MICROSOMAL STABILITY (% REMAINING AFTER 30 MINUTES) [1] | HUMAN MICROSOMAL STABILITY (% REMAINING AFTER 30 MINUTES) [2] | Compound
17 | <0.01% | <0.01% | OC(C1CCCc2cccnc21)C1(c2ccccc2C(F)(F)F)CCC1 (stereo not drawn) [Example 195, (anti)-5,6,7,8-tetrahydroquinolin-8-yl{1-[2-(trifluoromethyl)phenyl]-cyclobutyl}methanol]
18 | <0.01% | <0.01% | OC(C1CCCc2cccnc21)C1(c2ccccc2C(F)(F)F)CCC1 (stereo not drawn) [Example 196, (syn)-5,6,7,8-tetrahydroquinolin-8-yl{1-[2-(trifluoromethyl)phenyl]-cyclobutyl}methanol]
19 | <0.01% | 0.26% | OC(C1CCc2cccnc21)C1(c2ccccc2C(F)(F)F)CCC1 (stereo not drawn) [Example 197, (anti)-6,7-dihydro-5H-cyclopenta[b]pyridin-7-yl{1-[2-(trifluoromethyl)-phenyl]cyclobutyl}methanol]
20 | <0.01% | 0.05% | OC(C1CCc2cccnc21)C1(c2ccccc2C(F)(F)F)CCC1 (stereo not drawn) [Example 198, (syn)-6,7-dihydro-5H-cyclopenta[b]pyridin-7-yl{1-[2-(trifluoromethyl)-phenyl]cyclobutyl}methanol]
21 | 30% | 33% | O/N=C(\c1ccccn1)C1(c2ccc(Cl)c(Cl)c2)CCC1 [Example 230, (Z)-[1-(3,4-dichlorophenyl)cyclobutyl](pyridin-2-yl)methanone oxime]
22 | 0.072% | 57% | OC(c1ccccn1)C1(C2CCOCC2)CCC1 (centres unmarked) [Example 239, pyridin-2-yl[1-(tetrahydro-2H-pyran-4-yl)cyclobutyl]methanol]
23 | 59% | 66% | O=C1CC(c2cccc(C(F)(F)F)c2)([C@H](O)c2ccccn2)C1 [Example 241, 3-[(S)-hydroxy(pyridin-2-yl)methyl]-3-[3-(trifluoromethyl)phenyl]-cyclobutanone]
24 | 55% | 64% | O=C1CC(c2cccc(C(F)(F)F)c2)([C@@H](O)c2ccccn2)C1 [Example 243, 3-[(R)-hydroxy(pyridin-2-yl)methyl]-3-[3-(trifluoromethyl)phenyl]-cyclobutanone]
25 | 59% | 71% | OC(c1ccccn1)C1(C2(O)CCOC2)CCC1 (centres unmarked) [Example 246, 3-{1-[hydroxy(pyridin-2-yl)methyl]cyclobutyl}tetrahydrofuran-3-ol]
26 | 55% | 44% | O=C1CC(c2cccc(OC(F)(F)F)c2)([C@H](O)c2ccccn2)C1 [Example 256, 3-[(S)-hydroxy(pyridin-2-yl)methyl]-3-[3-(trifluoromethoxy)phenyl]-cyclobutanone]
27 | 57% | 42% | O=C1CC(c2cccc(OC(F)(F)F)c2)([C@@H](O)c2ccccn2)C1 [Example 257, 3-[(R)-hydroxy(pyridin-2-yl)methyl]-3-[3-(trifluoromethoxy)phenyl]-cyclobutanone]
28 | 82% | 66% | O=C1CC(c2ccc(F)c(Cl)c2)([C@H](O)c2ccccn2)C1 [Example 268, 3-(3-chloro-4-fluorophenyl)-3-[(S)-hydroxy(pyridin-2-yl)methyl]-cyclobutanone]
29 | 16% | >85% | OC(c1ccccn1)C1(C2CCOC2)CCC1 (centres unmarked) [Example 284, pyridin-2-yl[1-(tetrahydrofuran-3-yl)cyclobutyl]methanol]
30 | <0.01% | 15% | COc1ccc(C(O)C2(c3ccc(Cl)c(Cl)c3)CCC2)nc1 (centres unmarked) [Example 287, [1-(3,4-dichlorophenyl)cyclobutyl](5-methoxypyridin-2-yl)methanol]
31 | <0.01% | 4.2% | COc1ccnc(C(O)C2(c3ccc(Cl)c(Cl)c3)CCC2)c1 (centres unmarked) [Example 289, [1-(3,4-dichlorophenyl)cyclobutyl](4-methoxypyridin-2-yl)methanol]
